Test systems include HCT-15 colon; UACC-257 melanoma; KM12 colon; T-47D breast; ACHN renal; CAKI-1 renal; NCI-H522 lung; BT-549 breast; IGROV1 ovarian; SW-620 colon; UO-31 renal.
Assay in all cases: NCI anticancer screen, dose series, 48 h

For 18 compounds, TGI and GI50 results are on record in PubChem BioAssay (NCI).

Molecules are shown by their SMILES.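 A five-concentration, 48-hour dose response in 96-well plates underlies each endpoint, interpolated linearly between surrounding concentrations. At the GI50, growth is halved. TGI denotes the concentration required for complete inhibition of growth.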

Regarding `N=C(N)SCCN1CCCCC1`, the TGI in the assay with HCT-15 colon is > 100 µM; in the assay on UACC-257 melanoma, 41.6 µM; with KM12 colon it was > 100 µM; with T-47D breast, 85.6 µM; with ACHN renal, > 100 µM; in the assay on CAKI-1 renal it was 72.9 µM. The TGI with NCI-H522 lung is 24.3 µM; with BT-549 breast, 64.9 µM; with IGROV1 ovarian it was > 100 µM; in the assay on SW-620 colon it was > 100 µM; in the assay on UO-31 renal, > 100 µM.

With `O=S(=O)([O-])[O-].[Fe+2].[OH2+]c1c(Cl)cc(Cl)cc1/C=N/Nc1ccccn1`, the TGI is 3.48 µM in the assay with HCT-15 colon; 2.63 µM in the assay with UACC-257 melanoma; 2.75 µM in the assay with KM12 colon; 1.12 µM in the assay on ACHN renal; 1.92 µM with NCI-H522 lung; 3.13 µM in the assay on IGROV1 ovarian. In addition, the TGI came to 3.49 µM in the assay with SW-620 colon and 3.13 µM in the assay with UO-31 renal.

For `C[N+]1(c2ccccc2)C=C(c2ccccc2)SC1=S` (stereo unspecified), the TGI in the assay with HCT-15 colon is > 100 µM; in the assay with UACC-257 melanoma, > 100 µM; in the assay on KM12 colon, > 100 µM; in the assay on T-47D breast, 8.63 µM; with ACHN renal it was > 100 µM; with CAKI-1 renal, > 100 µM. Moreover, the TGI in the assay on NCI-H522 lung, in the assay on BT-549 breast, in the assay with IGROV1 ovarian, in the assay on SW-620 colon and in the assay with UO-31 renal was > 100 µM throughout.

For the compound `Nc1ccc(S(=O)(=O)NCCS(=O)(=O)O)cc1`, the TGI in the assay with HCT-15 colon, with UACC-257 melanoma, in the assay with KM12 colon, with ACHN renal, in the assay on CAKI-1 renal and in the assay with NCI-H522 lung was > 100 µM each time. In addition, the TGI in the assay with BT-549 breast, in the assay on IGROV1 ovarian, in the assay on SW-620 colon and in the assay on UO-31 renal was > 100 µM each time.

Regarding `O=C(/C=C/c1ccc(O)cc1)c1cc(-c2cc(CCC(=O)c3ccc(O)cc3O)ccc2O)c(O)cc1O`, the TGI with HCT-15 colon, in the assay with UACC-257 melanoma, in the assay with KM12 colon, in the assay on T-47D breast, in the assay on ACHN renal and with CAKI-1 renal was > 50 µM in each case. Besides, the TGI with NCI-H522 lung, in the assay on BT-549 breast, in the assay with IGROV1 ovarian, in the assay on SW-620 colon and in the assay with UO-31 renal was > 50 µM throughout.

Turning to `Cc1ncc(COP(=O)(O)O)c(C)c1O`, the TGI in the assay on HCT-15 colon, with UACC-257 melanoma, with KM12 colon, with T-47D breast, in the assay on ACHN renal and with CAKI-1 renal was > 100 µM in each case. Also, the TGI in the assay on NCI-H522 lung, with BT-549 breast, with IGROV1 ovarian, in the assay on SW-620 colon and in the assay with UO-31 renal was > 100 µM each time.

For the compound `COc1ccc(OC)c([N+](=O)[O-])c1-c1nc2sc(C)c(C)n2c1/C=N/N=C(N)N`, the TGI was > 100 µM with HCT-15 colon; > 100 µM with UACC-257 melanoma; 50.9 µM in the assay on KM12 colon; 61.2 µM in the assay on T-47D breast; > 100 µM with ACHN renal; > 100 µM in the assay on CAKI-1 renal. The TGI with NCI-H522 lung is > 100 µM; with BT-549 breast it was 57.7 µM; with IGROV1 ovarian, > 100 µM; in the assay with SW-620 colon, > 100 µM; in the assay on UO-31 renal, > 100 µM.

Take `COc1cc(O)c2c(=O)c(OC)c(-c3ccc(OC)c(OC)c3)oc2c1.[Zn+2]`: the GI50 in the assay on T-47D breast is 5.7 µM; in the assay with ACHN renal it was 35.4 µM; in the assay with IGROV1 ovarian, 29.8 µM. Moreover, the TGI in the assay with T-47D breast was > 100 µM; in the assay with ACHN renal, > 100 µM; in the assay with CAKI-1 renal, > 100 µM; with NCI-H522 lung, 24.1 µM; in the assay with BT-549 breast it was > 100 µM; in the assay on IGROV1 ovarian, > 100 µM. For the same compound, the TGI in the assay on SW-620 colon and with UO-31 renal was > 100 µM in each case.

Turning to `CCCCCCCCc1ccc(CCC(N)(CO)CO)cc1`, the GI50 in the assay with HCT-15 colon is 1.68 µM; in the assay with UACC-257 melanoma, 2.23 µM; with KM12 colon, 1.93 µM; in the assay with T-47D breast, 1.78 µM; in the assay on ACHN renal, 1.61 µM; with CAKI-1 renal, 2.64 µM. Also, the GI50 in the assay with IGROV1 ovarian is 1.89 µM; with SW-620 colon it was 1.64 µM; in the assay on UO-31 renal, 1.7 µM. The TGI with HCT-15 colon came to 3.42 µM; with UACC-257 melanoma it was 5.01 µM; with KM12 colon, 3.44 µM; in the assay with T-47D breast it was 3.44 µM; in the assay with ACHN renal it was 2.97 µM; with CAKI-1 renal it was 6.56 µM. Also, the results for the TGI in the assay with IGROV1 ovarian, in the assay with SW-620 colon and in the assay on UO-31 renal were 3.9 µM, 3.08 µM and 3.4 µM, respectively.

Consider `C=C(C[C@@H](O)[C@H](C)NC(=O)OCc1ccccc1)C(=O)OC(C)(C)C`, for which the TGI was > 100 µM in the assay with HCT-15 colon; > 100 µM with UACC-257 melanoma; > 100 µM in the assay with KM12 colon; 67.3 µM with T-47D breast; > 100 µM in the assay on ACHN renal; > 100 µM with CAKI-1 renal. Moreover, the TGI in the assay with NCI-H522 lung, with BT-549 breast, in the assay with IGROV1 ovarian, in the assay with SW-620 colon and with UO-31 renal was > 100 µM in each case.

`CCOc1ccc(N=Nc2ccc(-c3ccc(N=Nc4c(O)ccc5cc(S(=O)(=O)O)cc(S(=O)(=O)O)c45)cc3)cc2)cc1`: the TGI in the assay on HCT-15 colon, with UACC-257 melanoma, with KM12 colon, with ACHN renal, with CAKI-1 renal and with NCI-H522 lung was > 100 µM each time. Further, the TGI in the assay with BT-549 breast, in the assay with IGROV1 ovarian, with SW-620 colon and in the assay with UO-31 renal was > 100 µM in each case.

As for `O=C1O/C(=C\C=C\CO)C=C1/C=C/CO`, the TGI in the assay on HCT-15 colon is 30.8 µM; in the assay with KM12 colon it was > 100 µM; in the assay with T-47D breast it was 51.7 µM; in the assay with ACHN renal, 69.5 µM; in the assay on CAKI-1 renal, 28.3 µM; with NCI-H522 lung, 22.5 µM. Besides, the TGI turned out to be 50.9 µM with BT-549 breast, 38.6 µM with IGROV1 ovarian, 45.9 µM with SW-620 colon and 30.8 µM in the assay with UO-31 renal.

With `Cc1cccc(/C=C2/C(=O)Nc3ccccc32)n1`, the TGI in the assay on HCT-15 colon is > 68.9 µM; with UACC-257 melanoma, 30.1 µM; with KM12 colon, 35.4 µM; with T-47D breast, 34.2 µM; with ACHN renal, > 82.1 µM; in the assay with CAKI-1 renal, 37.8 µM. In addition, the TGI in the assay with NCI-H522 lung was 34.7 µM; with BT-549 breast, 68.6 µM; in the assay on IGROV1 ovarian it was > 100 µM; in the assay with SW-620 colon it was 49.7 µM; with UO-31 renal, 30.1 µM. The GI50 with IGROV1 ovarian is 24.4 µM.

Regarding `CC(=O)Oc1cc(/C=C/c2ccc(O)cc2)cc(OC(C)=O)c1`, the TGI in the assay with HCT-15 colon, in the assay on UACC-257 melanoma, in the assay with KM12 colon, in the assay with T-47D breast, in the assay with ACHN renal and with CAKI-1 renal was > 100 µM each time. Also, the TGI in the assay with NCI-H522 lung, in the assay with IGROV1 ovarian, in the assay with SW-620 colon and in the assay with UO-31 renal was > 100 µM each time.

In the case of `CC(=O)[C@]12OC(=O)C3=C1[C@H](CC[C@@H]3C)[C@@H](C)C[C@H]2C=C(C)C`, the TGI in the assay with HCT-15 colon was 15.5 µM; with UACC-257 melanoma, 21 µM; in the assay on KM12 colon, 14.9 µM; with T-47D breast, 14.4 µM; in the assay on ACHN renal, 15.3 µM; in the assay with CAKI-1 renal, 13 µM. Besides, the TGI amounted to 11.4 µM in the assay with NCI-H522 lung, 14.2 µM in the assay with IGROV1 ovarian, 15.3 µM in the assay with SW-620 colon and 15.2 µM in the assay on UO-31 renal.

On to `NC(=S)N/N=C1\CC(c2ccccc2)Nc2ccccc21` (stereo unspecified), for which the TGI in the assay on HCT-15 colon is > 100 µM; in the assay on ACHN renal it was > 100 µM; in the assay with CAKI-1 renal, > 100 µM; with NCI-H522 lung, 99.2 µM; in the assay with IGROV1 ovarian it was > 100 µM; with SW-620 colon, > 100 µM. For the same compound, in the assay on UO-31 renal, the TGI is 80.7 µM.

As for `CC(=O)c1c(C)cc2cccc(OC3OC(CO)C(O)C(O)C3O)c2c1O` (stereo unspecified) (tested in a mixture with another compound), the TGI in the assay on HCT-15 colon, with UACC-257 melanoma, in the assay on KM12 colon, with T-47D breast, with ACHN renal and in the assay with CAKI-1 renal was > 100 µM each time. For the same compound, the TGI in the assay on NCI-H522 lung, in the assay with BT-549 breast, in the assay with IGROV1 ovarian and in the assay with SW-620 colon was > 100 µM throughout.

Turning to `C[N+]1(C)C/C(=C\c2ccc(O)cc2)C(=O)/C(=C/c2ccc(O)cc2)C1`, the TGI in the assay on HCT-15 colon, with UACC-257 melanoma, in the assay with KM12 colon, in the assay with ACHN renal, in the assay on CAKI-1 renal and with NCI-H522 lung was > 100 µM in each case. The TGI with IGROV1 ovarian, with SW-620 colon and with UO-31 renal was > 100 µM throughout.
